Consider three molecules from patent EP1246919B1, “PROGENITOR CELL PR[…] AND RELATED METHODS AND PRODUCTS” (ImClone Systems Incorporated, priority 1999, dated 2001).

Bounds are passed on as bounds.

Data set [1] addresses T1, Dl-FRIL (Lablab purpureus, UniProt Q9ZTA9).
T1 sequence (Q9ZTA9 9-124 limits assumed): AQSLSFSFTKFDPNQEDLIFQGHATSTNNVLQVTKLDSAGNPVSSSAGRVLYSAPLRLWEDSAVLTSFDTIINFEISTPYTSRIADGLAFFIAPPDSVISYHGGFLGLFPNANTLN
T1 sequence (Q9ZTA9 125-272 limits assumed): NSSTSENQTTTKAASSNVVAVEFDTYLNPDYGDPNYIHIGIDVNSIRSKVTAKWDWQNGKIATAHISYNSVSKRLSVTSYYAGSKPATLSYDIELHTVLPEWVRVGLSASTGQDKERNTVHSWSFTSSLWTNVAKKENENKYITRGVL
To be noted: Mo et al., Glycobiology 9:173-179, 1999; cited from earlier work.

For data set [2], the target named is FLT3 receptor on FLT3-transfected 3T3 cells (murine FLT3 extracellular portion/human Fms chimera or full length human receptor, not told apart at that place). The data set can be described thus: cell-based or functional assay.
Data set [3] deals with BALB/c mice. The data set can be described thus: Murine 5-FU chemoprotection model. In kind it is in vivo. The conditions noted are these: 5-FU 150 mg/kg intraperitoneally. Here is the method:
A dose regimen was established to determine whether FRIL protects mice from death resulting from hematopoietic toxicity of […]. […] This finding was consistent with the understanding that stem cells reside in the bone marrow in predominantly a quiescent state. Bone marrow cellularity in these mice was restored after 2 weeks by the recruitment of the dormant progenitors and responsive stem cells that escaped toxicity of 5-FU. Administration of a second dose of 5-FU (also at 150 mg/kg) 3-7 days after the initial dose killed those stem cells and progenitors recruited into S-phase in response to the first treatment of 5-FU (Lerner and Harrison, supra).
In this study described below, the pretreatment dose regimen for Dl-FRIL described above (5 mg/kg x 4 days) was selected based on the requirement of treating animals with cytokines for several days prior to starting chemotherapy and because Dl-FRIL-treated mice easily tolerated doses (5 mg/kg) that were 10- to 100-fold greater than that used for cytokines. […]

Data set [4] concerns BALB/c mice. The conditions noted are these: single dose of 5-FU (150 mg/kg); Lerner and Harrison; cited from earlier work.

Consider `OC[C@H]1O[C@H](O[C@H]2O[C@H](CO)[C@@H](O)[C@H](O)[C@H]2O)[C@H](O)[C@@H](O)[C@@H]1O` [α,α-trehalose], for which, in data set [1], the “greater potency than mannose” value is given as 3.6 fold.
In the case of “Pv-FRIL, mannose-binding lectin isolated from red kidney bean (Phaseolus vulgaris) extract, or purified from PHA-LCM”, the Specific Activity (u/mg) in the Flt3 3T3 assay, Superdex 75 fraction (Pv-FRIL purified to near homogeneity from PHA-LCM) in data set [2] turned out to be 244000 u/mg.
In the case of `O=c1[nH]cc(F)c(=O)[nH]1` [5-FU, 5-fluorouracil], the “deaths after a single dose” value in data set [3] was “No mice died”. In data set [4], the “reduction of bone marrow cellularity” value is given as over 90%.
